{"source": "patent US20220354835A1", "about": "“COMPOUNDS FOR DEGRADING TAU PROTEIN AGGREGATES AND USES THEREOF” (Aprinoia Therapeutics Limited, priority 2019, published 2022)", "target": "T1, Tau aggregates in P301L-Tau-FL-GFP HEK293 cells (Homo sapiens, UniProt P10636, P618L)", "T1 construct": "express full-length human tau T40 (2N4R) carrying the P301L mutation with a GFP tag; expressed in transfected cells", "T1 sequence (P10636 1-441 isoform P10636-8 P301L)": "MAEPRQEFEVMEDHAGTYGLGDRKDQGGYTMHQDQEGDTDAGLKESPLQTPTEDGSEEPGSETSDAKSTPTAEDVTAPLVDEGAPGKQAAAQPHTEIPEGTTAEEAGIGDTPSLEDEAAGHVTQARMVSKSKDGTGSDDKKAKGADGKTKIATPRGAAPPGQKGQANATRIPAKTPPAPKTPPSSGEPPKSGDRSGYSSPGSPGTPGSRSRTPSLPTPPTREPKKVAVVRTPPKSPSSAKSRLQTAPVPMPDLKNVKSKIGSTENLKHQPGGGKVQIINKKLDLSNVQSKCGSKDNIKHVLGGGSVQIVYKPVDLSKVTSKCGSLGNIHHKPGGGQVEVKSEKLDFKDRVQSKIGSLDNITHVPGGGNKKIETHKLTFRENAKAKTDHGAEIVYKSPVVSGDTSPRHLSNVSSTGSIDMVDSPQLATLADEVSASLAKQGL", "test": "Tau degradation assay (APNmAb005 ELISA-based Tau aggregation assay)", "format": "cell-based", "conditions": "1 μM of compound, 24 hours, P301L-Tau-FL-GFP HEK293 cells seeded with rTg4510 brain lysate; read-out: Activity (reduction of tau aggregates)", "description": "(A). Cell-based model of Tau inclusion formation: Six month old rTg4510 mouse brain lysates were used as the source of tau seeds, prepared as described in Example 26 above. P301L-Tau-FL-GFP HEK293 cells represent HEK293 cells express full-length human tau T40 (2N4R) carrying the P301L mutation with a GFP tag (P301L-Tau-FL-GFP). 1×10^6 of P301L-Tau-FL-GFP HEK293 cells were cultured on a 6-well plate in culture medium containing DMEM/F-12 (Gibco) supplemented with 10% fetal bovine serum (FBS) (Gibco), 1% Penicillin-Streptomycin (Gibco) and 0.5 mg/ml geneticin (Thermo Fisher Scientific) for 24 hours to reach 70-90% confluency, indicating the cells were ready for transfection. 50 μg of 6-month-old rTg4510 mouse brain lysate was diluted in 400 μL of serum free medium and mixed with 16 μL of lipofectamine 3000 reagent (Thermo Fisher Scientific) diluted in 400 μl of serum free medium. A solution mixture of rTg4510 brain lysate and lipofectamine 3000 was incubated at room temperature for 25 min. The culture media were removed, and then a solution mixture of rTg4510 lysate and lipofectamine 3000 was added to the cells for transfection. The solution mixture was incubated at room temperature for five hours, followed by medium change to 10% fetal bovine serum (FBS). After two-day incubation, Tau aggregates (Tau spots) were induced and images were acquired by ImageXpress Micro Confocal high-content imaging system (Molecular Devices) as described in Example 52 above. Analysis was performed by two customized modules in MetaXpress software (Molecular Devices) for aggregated tau analysis. Output included cell numbers, numbers of tau spots, average intensity of tau spots, and average size of tau spots.\n(B). Compound treatment: 100 μL of 3×10^4 cells comprising Tau aggregates, prepared as described above in step (A), were plated on a 96-well plate coated with poly-D-lysine (BD Biosciences) and cultured for 24 hours. Compounds to be tested were dissolved in culture medium containing 0.1% DMSO. Each of test compounds in the concentration of 1, 0.2 and 0.04 μM was added to the cells comprising Tau aggregates and incubated at 37° C. for 24 hours. After that, culture medium was removed, cells were washed with PBS solution and then lysed using 30 μL of lysis buffer (PBS containing 0.3% Triton X-100 and 400 mM NaCl) for one hour at 4° C., and then cell lysate was diluted by 170 μl of PBS containing 400 mM NaCl. Cell lysate was filtrated by a […] filtration plate (Pall) and applied for Tau aggregation assay.\n(C). Control cell lysate: control cell lysate was collected from non-seeded cells.\n(D). ELISA-based Tau aggregation assay: APNmAb005 ELISA kit for Tau aggregation assay was designed and developed to detect abnormal tau aggregates in buffered solution or cell lysate by using anti-Tau APNmab005 as capture and detection antibody. This antibody is a highly specific antibody bound to human tau aggregates accumulated in mammalian cells. APNmAb005 is recited in PCT Patent Application No. PCT/M2020/057415, filed Aug. 5, 2020, which is incorporated herein by reference.\n0.15 μg of APNmAb005 in 100 mM sodium carbonate buffer (pH 9.6) was coated on a high-binding polystyrene 96-well microplate (Greiner Bio-One) at 4° C. overnight. The microplate was washed with PBS followed by treatment with Intercept (PBS) blocking buffer (LI-COR) at room temperature for 2 hours. After that, the microplate was washed with PBS, and then the cell lysate with compound treatment, prepared as described above in step (C), was added into each well of the microplate and incubated at room temperature for 2 hours. The microplate was washed with PBS and then incubated with HRP-conjugated secondary antibody APNmAb005 at room temperature for 3 hours. HRP-conjugated secondary antibody APNmAb005 was prepared using HRP conjugation kit (Abcam,ab102890). The microplate was then washed with PBS and incubated with 100 μL of horseradish peroxidase (HRP) substrate at room temperature. […]", "data": [{"compound": "CN(C)c1ccc(-c2ccc(-c3nc4ccc(NCCOCCOc5ccc6c(c5)CN(C5CCC(=O)NC5=O)C6=O)cc4s3)cc2)cn1", "note": "(stereo not shown) [Compound 160313, 3-[6-[2-[2-[[2-[4-[6-(dimethylamino)pyridin-3-yl]phenyl]-1,3-benzothiazol-6-yl]amino]ethoxy]ethoxy]-3-oxo-1H-isoindol-2-yl]piperidine-2,6-dione]", "values": [{"measurement": "inhibition at 1 µM", "value": "< 10", "unit": "%"}]}]}
